Reference: patent US9796705B2, “Fused tricyclic compounds and methods of use thereof for the treatment of viral diseases” (Merck Sharp & Dohme Corp., priority 2009, dated 2017)

tested on: HCV replicon; assay: Cell-Based HCV Replicon Assay; conditions: Hepatitis C virus, 72 h; replicon cells, replicon RNA level by real time PCR (Taqman) on day 3; EC90 = concentration to achieve ΔCT=3.2 over baseline; read-out: Biological activity (EC90, HCV replicon assay)
Protocol: To measure cell-based anti-HCV activity of selected compounds of the present invention, replicon cells were seeded at 5000 cells/well in 96-well collagen I-coated Nunc plates in the presence of the test compound. Various concentrations of test compound, typically in 10 serial 2-fold dilutions, were added to the assay mixture, with the starting concentration ranging from 250 µM to 1 μM. The final concentration of DMSO was 0.5%, fetal bovine serum was 5%, in the assay media. Cells were harvested on day 3 by the addition of 1× cell lysis buffer (Ambion cat #8721). The replicon RNA level was measured using real time PCR (Taqman assay). The amplicon was located in 5B. The PCR primers were: 5B.2F, ATGGACAGGCGCCCTGA (SEQ. ID NO. 1); 5B.2R, […] (SEQ. ID NO. 2); the probe sequence was FAM-labeled CACGCCATGCGCTGCGG (SEQ. ID NO. 3). GAPDH RNA was used as endogenous control and was amplified in the same reaction as NS5B (multiplex PCR) using primers and VIC-labeled probe recommended by the manufacturer (PE Applied Biosystem). The real-time RT-PCR reactions were run on ABI PRISM 7900HT Sequence Detection System using the following program: 48° C. for 30 min, 95° C. for 10 min, 40 cycles of 95° C. for 15 sec, 60° C. for 1 min. The ΔCT values (CT-CT5BCTGAPDH) were plotted against the concentration of test compound and fitted to the sigmoid dose-response model using XLfit4 (MDL). EC50 was defined as the concentration of inhibitor necessary to achieve ΔCT=1 over the projected baseline; EC90 the concentration necessary to achieve ΔCT=3.2 over the baseline. Alternatively, to quantitate the absolute amount of replicon RNA, a standard curve was established by including serially diluted T7 transcripts of replicon RNA in the Taqman assay. All Taqman reagents were from PE Applied Biosystems. Such an assay procedure was described in detail in e.g. Malcolm et at, Antimicrobial Agents and Chemotherapy 50: 1013-1020 (2006).
HCV replicon assay data was calculated for selected compounds of the present invention using this method and is provided in the table below.

| SMILES | EC90 [nM] |
| --- | --- |
| COC(=O)N[C@H](C(=O)N1CCC[C@H]1c1ncc(-c2ccc(-c3ccc4c(ccc5nc([C@@H]6CCCN6C(=O)[C@@H](NC(=O)OC)C(C)C)[nH]c54)c3)s2)[nH]1)C(C)C [Compound 1] | < 1 |
| COC(=O)N[C@H](C(=O)N1CCC[C@H]1c1ncc(-c2cc(C)c(-c3ccc4c(ccc5nc([C@@H]6CCCN6C(=O)[C@@H](NC(=O)OC)C(C)C)[nH]c54)c3)s2)[nH]1)C(C)C [Compound 2] | < 1 |
| COC(=O)N[C@H](C(=O)N1CCC[C@H]1c1nc2ccc(-c3ccc4c(ccc5nc([C@@H]6CCCN6C(=O)[C@@H](NC(=O)OC)C(C)C)[nH]c54)c3)cc2[nH]1)C(C)C [Compound 3] | < 1 |
| CC(=O)N1CCC[C@H]1c1nc2ccc(-c3ccc4c(ccc5nc([C@@H]6CCCN6C(=O)OC(C)(C)C)[nH]c54)c3)cc2[nH]1 [Compound 4] | ≥ 1000 |
| COC(=O)N[C@H](C(=O)N1CCC[C@H]1c1nc2ccc3cc(-c4ccc5nc([C@@H]6CCCN6C(C)=O)[nH]c5c4)ccc3c2[nH]1)C(C)C [Compound 5] | < 1 |
| CC(=O)N1CCC[C@H]1c1nc2ccc(-c3ccc4c(ccc5nc([C@@H]6CCCN6)[nH]c54)c3)cc2[nH]1 [Compound 6] | 1 to 999 |
| COC(=O)N[C@H](C(=O)N1CCC[C@H]1c1nc2cc(F)c(-c3ccc4c(ccc5nc([C@@H]6CCCN6C(=O)[C@@H](NC(=O)OC)C(C)C)[nH]c54)c3)cc2[nH]1)C(C)C [Compound 7] | < 1 |
| CC(C)(C)OC(=O)N1CCCC[C@H]1c1nc2ccc(-c3ccc4c(ccc5nc([C@@H]6CCCN6C(=O)OC(C)(C)C)[nH]c54)c3)cc2[nH]1 [Compound 8] | 1 to 999 |
| CC(C)(C)OC(=O)N1CC(F)(F)C[C@H]1c1nc2ccc(-c3ccc4c(ccc5nc([C@@H]6CCCN6C(=O)OC(C)(C)C)[nH]c54)c3)cc2[nH]1 [Compound 9] | 1 to 999 |
| COC(=O)N[C@H](C(=O)N1CCCC[C@H]1c1nc2ccc(-c3ccc4c(ccc5nc([C@@H]6CCCN6)[nH]c54)c3)cc2[nH]1)C(C)C [Compound 10] | 1 to 999 |
| COC(=O)N[C@H](C(=O)N1CCCC[C@H]1c1nc2ccc(-c3ccc4c(ccc5nc([C@@H]6CCCN6C(=O)[C@@H](NC(=O)OC)C(C)C)[nH]c54)c3)cc2[nH]1)C(C)C [Compound 11] | < 1 |
| COC(=O)N[C@H](C(=O)N1CC(F)(F)C[C@H]1c1nc2ccc(-c3ccc4c(ccc5nc([C@@H]6CCCN6C(=O)[C@@H](NC(=O)OC)C(C)C)[nH]c54)c3)cc2[nH]1)C(C)C [Compound 12] | < 1 |
| CC(C)[C@H](NC(=O)OC(C)(C)C)C(=O)N1CC(F)(F)C[C@H]1c1nc2ccc(-c3ccc4c(ccc5nc([C@@H]6CCCN6C(=O)[C@@H](NC(=O)OC(C)(C)C)C(C)C)[nH]c54)c3)cc2[nH]1 [Compound 13] | < 1 |
| CC(C)[C@H](N)C(=O)N1CC(F)(F)C[C@H]1c1nc2ccc(-c3ccc4c(ccc5nc([C@@H]6CCCN6C(=O)[C@@H](N)C(C)C)[nH]c54)c3)cc2[nH]1 [Compound 14] | 1 to 999 |
| Cc1cc(-c2cnc([C@@H]3CCCN3C(=O)OC(C)(C)C)[nH]2)sc1-c1ccc2c(ccc3nc([C@@H]4CCCN4C(=O)OC(C)(C)C)[nH]c32)c1 [Compound 15] | 1 to 999 |
| COC(=O)N[C@H](C(=O)N1CCC[C@H]1c1nc2ccc(-c3sc4ccc(-c5ccc6c(ccc7nc([C@@H]8CCCN8C(=O)[C@@H](NC(=O)OC)C(C)C)[nH]c76)c5)cc4c3C)cc2[nH]1)C(C)C [Compound 16] | < 1 |
| COC(=O)N[C@H](C(=O)N1CCC[C@H]1c1nc2ccc(-c3ccc4c(ccc5nc([C@@H]6CCCN6)[nH]c54)c3)cc2[nH]1)C(C)C [Compound 17] | 1 to 999 |
